Measurements as given in the NIST ThermoML archive (doi:10.1016/j.jct.2016.11.019).
± gives the expanded uncertainty stated by the source.

Experiment: Molar enthalpy of transition or fusion
Conditions: Crystal; DSC

Nc1cc(Cl)ccc1C(=O)O [2-amino-4-chlorobenzoic acid]
Molar enthalpy of transition or fusion: 28.8 ± 0.99 kJ/mol
